Source: ChEMBL document CHEMBL1142268, “Histone deacetylase inhibitors: from bench to clinic” (J Med Chem, 2008)

target: Histone deacetylase; assay: Inhibition of HDAC from human K562 cells; type: cell-based; conditions: not given

Question: `O=C(O)C(=O)CCCCCCOc1ccc(-c2ccccc2)cc1` was tested. Which IC50 did it give?
Answer: The IC50 was 3.7 µM.

Question: Which IC50 does the source give for `NC(=O)C(=O)CCCCCCOc1ccc(-c2ccccc2)cc1` here?
Answer: The IC50 was over 50 µM.

Question: How did the IC50 turn out when `C1=C\CCCCCC[n+]2cccc(c2)CCCCCCCCCCCC[n+]2cccc(c2)CCCCCC/1` was run?
Answer: The IC50 was 27 µM.

Question: For `O=C(CCCCCCc1nc(-c2ccc(OC(F)(F)F)cc2)cs1)NO`, which IC50 is on record?
Answer: The IC50 was 0.074 µM.

Question: For `CC(C)[C@H]1NC(=O)[C@@H](C)[C@@H](C/C=C\CCC(N)=O)NC(=O)[C@@H](Cc2ccccc2)NC(=O)[C@@H](C)NC1=O` [AZUMAMIDE A], which IC50 is on record?
Answer: Its IC50 is 0.045 µM.

Question: Which IC50 does the source give for `O=C(CCCCCCc1cnc(-c2ccccc2)o1)NO` here?
Answer: Its IC50 is 0.013 µM.

Question: `COC(=O)C(=O)CCCCCOc1ccc(-c2ccccc2)cc1` was tested. Which IC50 did it give?
Answer: The IC50 was 0.082 µM.

Question: Which IC50 does the source give for `CN(C)C(=O)C(=O)CCCCCCOc1ccc(-c2ccccc2)cc1` here?
Answer: The IC50 was over 5 µM.

Question: Which IC50 does the source give for `CN(C)CCNC(=O)C(=O)CCCCCCOc1ccc(-c2ccccc2)cc1` here?
Answer: The IC50 was over 50 µM.

Question: How did the IC50 turn out when `O=C(O)CNC(=O)C(=O)CCCCCCOc1ccc(-c2ccccc2)cc1` was run?
Answer: Its IC50 is over 50 µM.

Question: How did the IC50 turn out when `COC(=O)C(=O)CCCCCCOc1ccc(-c2ccccc2)cc1` was run?
Answer: Its IC50 is 0.062 µM.

Question: Which IC50 does the source give for `C[C@@H]1C(=O)N[C@H](C)C(=O)N[C@H](C)C(=O)N[C@H](Cc2ccccc2)C(=O)N[C@@H]1C/C=C\CCC(N)=O` [AZUMAMIDE D] here?
Answer: Its IC50 is 1.3 µM.

Question: `O=C(CCCCCCc1cnc(-c2ccc(F)cc2)o1)NO` was tested. Which IC50 did it give?
Answer: Its IC50 is 0.023 µM.

Question: How did the IC50 turn out when `COC(=O)C(=O)CCCCCCCOc1ccc(-c2ccccc2)cc1` was run?
Answer: The IC50 was 0.109 µM.

target: Histone deacetylase; assay: Inhibition of HDAC from human HeLa cells; type: cell-based; conditions: not given

Question: For `O=C(NO)c1ccc(-c2ccncc2)s1`, which IC50 is on record?
Answer: The IC50 was 1.26 µM.

Question: With `O=C(NO)c1ccc(-c2ccccn2)s1` as the compound, how does the IC50 read?
Answer: The IC50 was 0.243 µM.

Question: For `O=C(NO)c1ccc(-c2cccnc2)s1`, which IC50 is on record?
Answer: Its IC50 is 1.13 µM.

Question: How did the IC50 turn out when `CSCCCCCCC(=O)Nc1ccccc1` was run?
Answer: Its IC50 is over 100 µM.

same assay, conditions: read-out: IC50

Question: Which IC50 does the source give for `O=C(CCCCS)Nc1ccccc1` here?
Answer: Its IC50 is 6.2 µM.

Question: `O=C(CCCCCNC(=O)Nc1cccc(-c2nc3ccc(F)cc3o2)c1)NO` was tested. Which IC50 did it give?
Answer: Its IC50 is 0.009 µM.

Question: How did the IC50 turn out when `COc1ccc(NS(=O)(=O)c2cccc(/C=C/C(=O)NO)c2)cc1OC` was run?
Answer: Its IC50 is 0.023 µM.

Question: Which IC50 does the source give for `O=C(/C=C/c1cccc(NS(=O)(=O)c2ccc(-c3ccccc3)cc2)c1)NO` here?
Answer: The IC50 was 0.106 µM.

Question: Which IC50 does the source give for `COc1ccc(-c2nc3cc(Cl)cc(Cl)c3o2)cc1NC(=O)NCCCCCC(=O)NO` here?
Answer: Its IC50 is 0.128 µM.

Question: With `O=C(CCCCCNC(=O)Nc1cccc(-c2nc3cc(C(F)(F)F)ccc3o2)c1)NO` as the compound, how does the IC50 read?
Answer: Its IC50 is 0.019 µM.

Question: How did the IC50 turn out when `O=C(/C=C/c1cccc(NS(=O)(=O)c2ccccc2)c1)NO` was run?
Answer: The IC50 was 0.188 µM.

Question: How did the IC50 turn out when `O=C(/C=C/c1ccc(NS(=O)(=O)c2ccc(-c3ccccc3)cc2)cc1)NO` was run?
Answer: Its IC50 is 0.03 µM.

Question: `CC(=O)SCCCCCCC(=O)Nc1ccccc1` was tested. Which IC50 did it give?
Answer: The IC50 was 7.1 µM.

Question: For `O=C(/C=C/c1ccc(S(=O)(=O)Nc2ccc(-c3ccccc3)cc2)cc1)NO`, which IC50 is on record?
Answer: Its IC50 is 0.066 µM.

Question: Which IC50 does the source give for `COc1ccc(-c2nc3ccccc3o2)cc1NC(=O)NCCCCCC(=O)NO` here?
Answer: The IC50 was 0.012 µM.

Question: `Cc1ccc(NS(=O)(=O)c2cccc(/C=C/C(=O)NO)c2)cc1` was tested. Which IC50 did it give?
Answer: The IC50 was 0.018 µM.

Question: With `COc1ccc(-c2nc3cc(Cl)ccc3o2)cc1NC(=O)NCCCCCC(=O)NO` as the compound, how does the IC50 read?
Answer: Its IC50 is 0.146 µM.

Question: For `COc1ccc(-c2nc3cc(F)ccc3o2)cc1NC(=O)NCCCCCC(=O)NO`, which IC50 is on record?
Answer: The IC50 was 0.015 µM.

Question: For `COc1ccc(-c2nc3cc(-c4ccccc4)ccc3o2)cc1NC(=O)NCCCCCC(=O)NO`, which IC50 is on record?
Answer: The IC50 was 0.4 µM.

Question: `COc1ccc(S(=O)(=O)Nc2cccc(/C=C/C(=O)NO)c2)cc1OC` was tested. Which IC50 did it give?
Answer: Its IC50 is 0.137 µM.

Question: Which IC50 does the source give for `Cc1ccc(S(=O)(=O)Nc2cccc(/C=C/C(=O)NO)c2)cc1` here?
Answer: The IC50 was 0.123 µM.

Question: How did the IC50 turn out when `O=C(CCCCCNC(=O)Nc1cccc(-c2nc3cc(F)ccc3o2)c1)NO` was run?
Answer: Its IC50 is 0.008 µM.

Question: Which IC50 does the source give for `O=C(/C=C/c1ccc(S(=O)(=O)Nc2ccccc2)cc1)NO` here?
Answer: The IC50 was 0.029 µM.

Question: With `CN(c1ccccc1)S(=O)(=O)c1cccc(/C=C/C(=O)NO)c1` as the compound, how does the IC50 read?
Answer: The IC50 was 0.476 µM.

Question: Which IC50 does the source give for `COc1ccc(-c2nc3ccc(F)cc3o2)cc1NC(=O)NCCCCCC(=O)NO` here?
Answer: The IC50 was 0.018 µM.

Question: `COc1ccc2oc(-c3cccc(NC(=O)NCCCCCC(=O)NO)c3)nc2c1` was tested. Which IC50 did it give?
Answer: The IC50 was 0.012 µM.

Question: Which IC50 does the source give for `O=C(/C=C/c1cccc(S(=O)(=O)NCc2ccccc2)c1)NO` here?
Answer: Its IC50 is 0.034 µM.

Question: `O=C(CCCCCNC(=O)Nc1cccc(-c2nc3ccccc3o2)c1)NO` was tested. Which IC50 did it give?
Answer: The IC50 was 0.008 µM.

Question: `O=C(/C=C/c1cccc(S(=O)(=O)Nc2ccc(-c3ccccc3)cc2)c1)NO` was tested. Which IC50 did it give?
Answer: Its IC50 is 0.054 µM.
